Assay results from article PMC4791286, “Puquitinib mesylate, an inhibitor of phosphatidylinositol 3-kinase p110δ, for treating relapsed or refractory non-Hodgkin's lymphoma” (Oncotarget, 2015).
Where “and” joins values, the source holds several entries; their conditions need not be identical. Identical values can stand only once. Counter-ions that a name gives are not always drawn. Like-named read-outs stand apart in the source and are kept apart here.

Tests used:
[1] = tested on: advanced solid tumors and lymphoma; set-up: method as in PMID 22357447; settings: cited from earlier work
[2] = Phase I study, pharmacokinetics of XC-302 in patients; assay type: in vivo, human
Description: Detailed pharmacokinetic were analyzed by taking blood samples before (within 1 hour) and after (every 2 hours) dosing on days 1, 28 of cycle 1. Plasma concentrations of XC-302 were measured with a validated liquid chromatography assay. Pharmacokinetic measures, such as the maximum plasma concentration (Cmax) and area under the time-concentration curve (AUC), were estimated in every patient.

[3] = tested on: relapsed or refractory non-Hodgkin's lymphoma; assay: Phase I study, antitumor activity (response, PFS); assay type: in vivo, human
Description: This was a phase I open label, dose-escalation study whose primary objective was to characterize the safety of XC-302 in adult Chinese patients with advanced lymphoma administered on a 28-day cycle. Others were to determine the pharmacokinetics (PK) characteristics and anti-tumor activity. The anti-tumor effects of XC-302 were evaluated every 2 cycles with the Standardized Response Criteria of the National Cancer Institute International Working Group (IWG). Efficacy evaluation for CLL was on account of IWCLL criteria while for NHL, it was analyzed by IWG response criteria. Patients with stable disease or partial remission were allowed to continue therapy until progressive disease or toxicity was observed.

PI3K p110γ = tested on: PI3K p110γ; set-up: method as in earlier work; settings: ref unpublished information, personal communication with Wei Mao on January 1, 2013; read-out: IC50 against PI3K isoform p110γ; cited from earlier work
[4] = tested on: AKT phosphorylation mediated by EGFR; set-up: method as in earlier work; settings: ref unpublished information, personal communication with Wei Mao on January 1, 2013; cited from earlier work
KDR = tested on: KDR; set-up: method as in earlier work; settings: ref unpublished information, personal communication with Wei Mao on January 1, 2013; read-out: IC50, receptor tyrosine kinase KDR; cited from earlier work
PDGFR β = tested on: PDGFR β; set-up: method as in earlier work; settings: ref unpublished information, personal communication with Wei Mao on January 1, 2013; read-out: IC50, receptor tyrosine kinase PDGFR β; cited from earlier work
[5] = tested on: vascular endothelial cells lumen; set-up: method as in earlier work; settings: ref unpublished information, personal communication with Wei Mao on January 1, 2013; read-out: IC50, formation of the vascular endothelial cells lumen; cited from earlier work
[6] = tested on: xenografts with cancer of the colon, stomach, or lung; set-up: method as in earlier work; settings: nude mice, ref unpublished information, personal communication with Wei Mao on January 1, 2013; cited from earlier work
[7] = set-up: method as in earlier work; settings: pre-clinical; ref unpublished information, personal communication with Wei Mao on January 1, 2013; cited from earlier work
[8] = set-up: method as in earlier work; settings: toxicology experiments; ref unpublished information, personal communication with Wei Mao on January 1, 2013; cited from earlier work
CYP1A2 enzyme = settings: preliminary study; cited from earlier work
[9] = tested on: cell lines with drug resistance mediated by p170/MDR-1 / p-Glycoprotein; set-up: method as in earlier work; settings: p170/MDR-1 / p-Glycoprotein mediated resistance; ref unpublished information, personal communication with Wei Mao on January 1, 2013; cited from earlier work
PI3K p110α = settings: read-out: IC50 against PI3K isoform p110α; ref unpublished information, personal communication with Wei Mao on January 1, 2013; cited from earlier work
PI3K p110β = settings: read-out: IC50 against PI3K isoform p110β; ref unpublished information, personal communication with Wei Mao on January 1, 2013; cited from earlier work
PI3K p110δ = settings: read-out: IC50 against PI3K isoform p110δ; ref unpublished information, personal communication with Wei Mao on January 1, 2013; cited from earlier work
advanced solid tumors = settings: ref unpublished information, personal communication with Wei Mao on January 1, 2013, cited from earlier work; for Maximum tolerated dose (MTD): single agent, postprandial

COc1ccc(-c2ccc3ncc4c(c3c2)n(-c2ccc(N3CCNCC3)c(C(F)(F)F)c2)c(=O)n4C)cn1 [BGT226]
AST elevations, Grade 2 [1]: 9 n | AST elevations, Grade 3 [1]: 3 n

c1cnc2ccc(Nc3nc(NC4CC4)c4nc[nH]c4n3)cc2c1 [XC-302, Puquitinib Mesylate]
Pharmacokinetic response (AUClast and Cmax vs dose) ([2]; 25 mg to 50 mg, days 1 and 28): linear | Tmax ([2]; human, serum, oral, 25 to 50 mg BID, patients, read-out: Time of peak serum concentration after administration): ~4 h | Complete response ([3]; 25 mg BID, n = 3): 0 n | Minor response ([3]; 25 mg BID, n = 3): 0 n | Partial response ([3]; 25 mg BID, n = 3): 0 n | Progressive disease ([3]; 25 mg BID, n = 3): 0 n | Stable disease ([3]; 25 mg BID, n = 3): 3 n | Complete response ([3]; 37.5 mg BID, n = 9): 0 n | Minor response ([3]; 37.5 mg BID, n = 9): 0 n | Partial response ([3]; 37.5 mg BID, n = 9): 0 n | Progressive disease ([3]; 37.5 mg BID, n = 9): 8 n | Stable disease ([3]; 37.5 mg BID, n = 9): 1 n | Complete response ([3]; 50 mg BID (n = 7)): 0 n | Minor response ([3]; 50 mg BID (n = 7)): 1 n | Overall response rate ([3]; 50 mg BID (n = 7)): 2 n | Partial response ([3]; 50 mg BID (n = 7)): 1 n | Progressive disease ([3]; 50 mg BID (n = 7)): 3 n | Stable disease ([3]; 50 mg BID (n = 7)): 2 n | Complete response ([3]; All (n = 21; 19 evaluable)): 0 n | Minor response ([3]; All (n = 21; 19 evaluable)): 1 n | Overall response rate ([3]; All (n = 21; 19 evaluable)): 2 n | Partial response ([3]; All (n = 21; 19 evaluable)): 1 n | Progressive disease ([3]; All (n = 21; 19 evaluable)): 11 n | Stable disease ([3]; All (n = 21; 19 evaluable)): 6 n | Progression free survival (PFS), median (95% CI) ([3]; all evaluable patients): 1.9 (95% CI, 1.7 to 2.0) months and 1.9 months | Duration of response, median (range) ([3]; printed as for all 19 patients): 7.1 (6.9 to 7.3) months | Time to response ([3]; the two responding patients, individual values): 1.8 months and 1.84 months | ALT, increased, adverse event, any grade (25 mg BID, n = 3): 2 n | Anemia, adverse event, any grade (25 mg BID, n = 3): 1 n | Creatinine, increased, adverse event, any grade (25 mg BID, n = 3): 1 n | Fecal occult blood, adverse event, any grade (25 mg BID, n = 3): 1 n | Hematuresis, adverse event, any grade (25 mg BID, n = 3): 1 n | Leukopenia, adverse event, any grade (25 mg BID, n = 3): 1 n | Thrombocytopenia, adverse event, any grade (25 mg BID, n = 3): 1 n | ALT, increased, adverse event, any grade (37.5 mg BID, n = 9): 5 n | AST, increased, adverse event, any grade (37.5 mg BID, n = 9): 1 n | Anemia, adverse event, any grade (37.5 mg BID, n = 9): 4 n | Anemia, adverse event, grade ≥3 (37.5 mg BID, n = 9): 1 n | Constipation, adverse event, any grade (37.5 mg BID, n = 9): 1 n | Fecal occult blood, adverse event, any grade (37.5 mg BID, n = 9): 2 n | Hematuresis, adverse event, any grade (37.5 mg BID, n = 9): 1 n | Leukopenia, adverse event, any grade (37.5 mg BID, n = 9): 1 n | Nausea, adverse event, any grade (37.5 mg BID, n = 9): 1 n | Neutropenia, adverse event, any grade (37.5 mg BID, n = 9): 2 n | Proteinuria, adverse event, any grade (37.5 mg BID, n = 9): 1 n | Pyrexia, adverse event, any grade (37.5 mg BID, n = 9): 2 n | S-T-segment change, adverse event, any grade (37.5 mg BID, n = 9): 1 n | Thrombocytopenia, adverse event, any grade (37.5 mg BID, n = 9): 2 n | Thrombocytopenia, adverse event, grade ≥3 (37.5 mg BID, n = 9): 1 n | URI, adverse event, any grade (37.5 mg BID, n = 9): 2 n | Patients with dose-limiting toxicity (grade 3 transaminases elevation) (50 mg BID group): Four | ALT, increased, adverse event, any grade (50 mg BID, n = 9): 7 n | ALT, increased, adverse event, grade ≥3 (50 mg BID, n = 9): 4 n | AST, increased, adverse event, any grade (50 mg BID, n = 9): 6 n | AST, increased, adverse event, grade ≥3 (50 mg BID, n = 9): 1 n | Anemia, adverse event, any grade (50 mg BID, n = 9): 2 n | Arrhythmia, adverse event, any grade (50 mg BID, n = 9): 1 n | Constipation, adverse event, any grade (50 mg BID, n = 9): 1 n | Creatinine, increased, adverse event, any grade (50 mg BID, n = 9): 1 n | Diarrhea, adverse event, any grade (50 mg BID, n = 9): 2 n | Fecal occult blood, adverse event, any grade (50 mg BID, n = 9): 1 n | Hematuresis, adverse event, any grade (50 mg BID, n = 9): 1 n | Leukopenia, adverse event, any grade (50 mg BID, n = 9): 2 n | Nausea, adverse event, any grade (50 mg BID, n = 9): 1 n | Neutropenia, adverse event, any grade (50 mg BID, n = 9): 3 n | Neutropenia, adverse event, grade ≥3 (50 mg BID, n = 9): 2 n | Peripheral nerve toxicity, adverse event, any grade (50 mg BID, n = 9): 1 n | Pyrexia, adverse event, any grade (50 mg BID, n = 9): 2 n | Rash, adverse event, any grade (50 mg BID, n = 9): 2 n | S-T-segment change, adverse event, any grade (50 mg BID, n = 9): 1 n | Thrombocytopenia, adverse event, any grade (50 mg BID, n = 9): 1 n | Thrombocytopenia, adverse event, grade ≥3 (50 mg BID, n = 9): 1 n | URI, adverse event, any grade (50 mg BID, n = 9): 2 n | DLT events (25-mg or 37.5-mg doses): No DLT events | ALT, increased, adverse event, any grade (Overall): 14 n | ALT, increased, adverse event, grade ≥3 (Overall): 4 n | AST, increased, adverse event, any grade (Overall): 7 n | AST, increased, adverse event, grade ≥3 (Overall): 1 n | Anemia, adverse event, any grade (Overall): 7 n | Arrhythmia, adverse event, any grade (Overall): 1 n | Constipation, adverse event, any grade (Overall): 2 n | Creatinine, increased, adverse event, any grade (Overall): 2 n | Diarrhea, adverse event, any grade (Overall): 2 n | Fecal occult blood, adverse event, any grade (Overall): 4 n | Hematuresis, adverse event, any grade (Overall): 3 n | Leukopenia, adverse event, any grade (Overall): 4 n | Nausea, adverse event, any grade (Overall): 2 n | Neutropenia, adverse event, any grade (Overall): 5 n | Neutropenia, adverse event, grade ≥3 (Overall): 2 n | Peripheral nerve toxicity, adverse event, any grade (Overall): 1 n | Proteinuria, adverse event, any grade (Overall): 1 n | Pyrexia, adverse event, any grade (Overall): 4 n | Rash, adverse event, any grade (Overall): 2 n | S-T-segment change, adverse event, any grade (Overall): 2 n | Thrombocytopenia, adverse event, any grade (Overall): 4 n | Thrombocytopenia, adverse event, grade ≥3 (Overall): 2 n | URI, adverse event, any grade (Overall): 4 n | Anemia, frequency of AE (all 21 patients): 33.3% | Creatinine elevation, frequency of AE (all 21 patients): 9.5% | Elevated alanine transaminase (ALT), frequency of AE (all 21 patients): 66.7% | Elevated aspartate transaminase (AST), frequency of AE (all 21 patients): 33.3% | Fecal occult blood, frequency of AE (all 21 patients): 19.0% | Hematuresis, frequency of AE (all 21 patients): 14.3% | Myocardial ischemia, frequency of AE (all 21 patients): 9.5% | Neutropenia, frequency of AE (all 21 patients): 23.8% | Rash, frequency of AE (all 21 patients): 9.5% | Thrombocytopenia, frequency of AE (all 21 patients): 19.0% | Upper respiratory infection (URI), frequency of AE (all 21 patients): 19.0% | Drug-related hyperglycemia (all patients): no XC302-related hyperglycemia | Maximum tolerated dose (MTD) (twice a day, 28-day cycle, NHL patients): 50 mg | IC50 (PI3K p110γ): 89.7 nM | IC50 [4]: 100 nM | IC50 (KDR): 1000 nM | IC50 (PDGFR β): 1000 nM | IC50 [5]: 100 nM | Anti-tumor efficacy in xenografts [6]: obvious anti-tumor efficacy | Absolute bioavailability [7]: high absolute bioavailability | Absorption [7]: rapidly absorbed | Toxicity [8]: low toxicity | Inhibition of CYP1A2 enzyme activity (CYP1A2 enzyme): irreversibly inhibited | Sensitivity of drug-resistant cell lines [9]: similarly sensitive | IC50 (PI3K p110α): 767 nM | IC50 (PI3K p110β): 699 nM | IC50 (PI3K p110δ): 2.8 nM | Disease control rate (advanced solid tumors; advanced solid tumors): 52.5% | Oral bioavailability (advanced solid tumors; clinical PK monitoring): good oral bioavailability | Maximum tolerated dose (MTD) (advanced solid tumors; continuous daily schedule): 75 mg | Maximum tolerated dose (MTD) (advanced solid tumors; twice daily (BID)): 50 mg
